From ChEMBL document CHEMBL2396588, “Synthesis, biological evaluation and molecular modeling of substituted 2-aminobenzimidazoles as novel inhibitors of acetylcholinesterase and butyrylcholinesterase” (Bioorg Med Chem, 2013)

Legend:
Acetylcholinesterase = Acetylcholinesterase (Homo sapiens, UniProt P22303); assay: Inhibition of human AchE using acetylthiocholine iodide as substrate incubated for 20 mins prior to substrate addition measured for 1 hr by Ellman's method
PC-12 = assay: Cytotoxicity against rat PC12 cells assessed as cell viability at 100 uM after 48 hrs by MTT assay; type: cell-based; conditions: pc-12, 48 h
Cholinesterase = Cholinesterase (Homo sapiens, UniProt P06276); assay: Inhibition of human BuChE using butyrylthiocholine iodide as substrate incubated for 20 mins prior to substrate addition measured for 1 hr by Ellman's method
Sequence of Cholinesterase (P06276 whole entry): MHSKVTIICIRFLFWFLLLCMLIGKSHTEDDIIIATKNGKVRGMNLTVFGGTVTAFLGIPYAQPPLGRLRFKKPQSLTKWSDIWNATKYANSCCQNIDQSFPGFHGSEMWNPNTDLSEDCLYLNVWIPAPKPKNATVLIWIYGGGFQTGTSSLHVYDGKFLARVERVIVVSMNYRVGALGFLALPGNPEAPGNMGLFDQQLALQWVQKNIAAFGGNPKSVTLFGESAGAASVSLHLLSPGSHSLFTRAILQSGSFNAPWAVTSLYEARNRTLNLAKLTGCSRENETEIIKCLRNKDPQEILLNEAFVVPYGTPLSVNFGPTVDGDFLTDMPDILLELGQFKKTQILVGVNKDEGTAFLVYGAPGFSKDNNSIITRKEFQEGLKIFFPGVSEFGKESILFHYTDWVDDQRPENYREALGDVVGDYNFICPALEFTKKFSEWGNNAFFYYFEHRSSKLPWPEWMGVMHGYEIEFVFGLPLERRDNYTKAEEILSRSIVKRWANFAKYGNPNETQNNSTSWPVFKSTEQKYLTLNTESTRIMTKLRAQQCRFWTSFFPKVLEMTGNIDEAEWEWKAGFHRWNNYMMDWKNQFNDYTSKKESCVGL

HepG2 = assay: (§1) Cytotoxicity against human HepG2 cells assessed as cell viability at 100 uM after 48 hrs by MTT assay; type: cell-based; conditions: hepg2, 48 h, 100 µM
Homo sapiens = organism: Homo sapiens; assay: Selectivity ratio of IC50 for human AChE to IC50 for human BuChE
[1] = as §1; type: cell-based; conditions: HepG2 cells, read-out: Activity

Sequence of Acetylcholinesterase (P22303 whole entry): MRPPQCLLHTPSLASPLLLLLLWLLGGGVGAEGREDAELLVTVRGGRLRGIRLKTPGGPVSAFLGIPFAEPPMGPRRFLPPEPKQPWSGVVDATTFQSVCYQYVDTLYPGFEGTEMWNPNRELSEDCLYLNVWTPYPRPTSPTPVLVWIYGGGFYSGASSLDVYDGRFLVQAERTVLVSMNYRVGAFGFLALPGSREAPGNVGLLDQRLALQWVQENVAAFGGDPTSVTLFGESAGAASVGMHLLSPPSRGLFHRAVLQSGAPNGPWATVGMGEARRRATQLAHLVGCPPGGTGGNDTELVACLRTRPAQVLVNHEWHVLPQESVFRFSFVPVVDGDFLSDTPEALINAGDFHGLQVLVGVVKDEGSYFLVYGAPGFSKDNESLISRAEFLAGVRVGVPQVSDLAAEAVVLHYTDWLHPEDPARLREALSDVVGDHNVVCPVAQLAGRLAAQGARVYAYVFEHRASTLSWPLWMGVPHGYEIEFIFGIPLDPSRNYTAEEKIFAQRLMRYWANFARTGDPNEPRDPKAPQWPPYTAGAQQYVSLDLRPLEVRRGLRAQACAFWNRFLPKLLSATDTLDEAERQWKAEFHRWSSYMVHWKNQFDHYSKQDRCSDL

SMILES	IC50 (Acetylcholinesterase) [µM]	Activity (PC-12)	IC50 (Cholinesterase) [µM]	Activity (HepG2)	Ratio IC50 (Homo sapiens)	viability at 48 h, 100 µM [1] [%]
COCCNc1nc2ccccc2[nH]1	> 100	Non-toxic	> 100	Non-toxic	–	–
c1ccc2[nH]c(NC34CC5CC(CC(C5)C3)C4)nc2c1	> 100	Non-toxic	> 100	Non-toxic	–	–
CCCCN(C)c1nc2ccccc2[nH]1	> 100	Non-toxic	> 100	Non-toxic	–	–
CCN(CC)CCCNc1nc2ccccc2[nH]1	> 100	Non-toxic	> 100	Non-toxic	–	–
c1ccc2c(c1)CCCN2c1nc2ccccc2[nH]1	> 100	Non-toxic	> 100	Non-toxic	–	–
NCCNc1nc2ccccc2[nH]1	> 100	Non-toxic	> 100	Non-toxic	–	–
CN(C)CCCN(c1nc2ccccc2[nH]1)c1nc2ccccc2[nH]1	59.7	Non-toxic	2.26	Non-toxic	26.4	–
c1ccc2[nH]c(N3CCCCC3)nc2c1	59.2	Non-toxic	1.57	Non-toxic	37.7	–
c1ccc(Nc2nc3ccccc3[nH]2)nc1	> 100	Non-toxic	> 100	Non-toxic	–	–
CC1CCCCN1c1nc2ccccc2[nH]1 (configuration not stated)	88.9	Non-toxic	2.03	Non-toxic	43.8	–
CCCCNc1nc2ccccc2n1C	> 100	Non-toxic	> 100	Non-toxic	–	–
CC(C)(C)OC(=O)NCCNc1nc2ccccc2[nH]1	> 100	Non-toxic	71.9	Non-toxic	–	–
CCCCNc1nc2ccccc2[nH]1	> 100	–	61	–	–	85.2
CCCCN(C)c1nc2ccccc2n1C	> 100	Non-toxic	> 100	Non-toxic	–	–
c1ccc(CCCNc2nc3ccccc3[nH]2)cc1	> 100	Non-toxic	> 100	Non-toxic	–	–
